From article PMC3424241, “The Octadecaneuropeptide ODN Protects Astrocytes against Hydrogen Peroxide-Induced Apoptosis via a PKA/MAPK-Dependent Mechanism” (PLoS ONE, 2012)

Tests used:
Assay type in all cases: cell-based, rat
[1] = tested on: glutathione (GSH) in cultured astrocytes; test: Intracellular glutathione content, mBCl fluorescence
Protocol: (§1) Secondary cultures of rat cortical astrocytes were prepared as previously described [64]with minor modifications. Briefly, cerebral hemispheres from newborn Wistar rats were collected in DMEM/F12 (2∶1; v/v) culture medium supplemented with 2 mM L-glutamine, 1‰ insulin, 5 mM HEPES, 0.4% glucose and 1% of the antibiotic-antimycotic solution. The tissues were dissociated mechanically with a syringe equipped with a 1-mm gauge needle, and filtered through a 100-µm sieve (Falcon, Franklin Lakes, NJ, USA). Dissociated cells were resuspended in culture medium supplemented with 10% FBS, plated in 175-cm^2 flasks (Greiner Bio-one GmbH, Frickenhausen, Germany) and incubated at 37°C in a 5% CO2/[…] atmosphere. When cultures were confluent, astrocytes were isolated by shaking overnight the flasks on an orbital agitator. Adhesive cells were detached by trypsination and preplated for 5 min to discard contaminating microglial cells. Then, the non-adhering astrocytes were harvested and plated on 35-mm hydrophilic surface Petri dishes at a density of 3×10^5 cells/ml. For measurement of cell survival, caspase-3 activity and mitochondrial activity, cells were plated in hydrophilic surface 24-well plates at a density of 8×10^4 cells/ml. The cells were incubated at 37°C in a humid atmosphere (5% CO2). After 5 days (DIV5), more than 99% of the cells were labeled with antibodies against glial fibrillary acidic protein [65]. All experiments were performed on 5- to 7-day-old secondary cultures.
Reduced GSH was measured by using the thiol-reactive probe mBCl. At the end of the treatment period, the culture medium was removed and the cells were incubated with the mBCl probe (40 µM) at 37°C for 30 min and then washed twice with PBS. Fluorescence intensity was measured with excitation at 360 nm and emission at 485 nm, using a microplate reader (Bio-Tek FLx 800).

Bax = Bax mRNA level, quantitative RT-PCR; details: ODN 0.1 nM
Protocol: as §1, with “For measurement of cell survival, caspase-3 activity and mitochondrial activity, cells were plated in hydrophilic surface 24-well plates at a density of 8×10^4 cells/ml. The cells were incubated at 37°C in a humid atmosphere (5% CO2). After 5 days (DIV5), more than 99% of the cells were labeled with antibodies against glial fibrillary acidic protein [65]. All experiments were performed on 5- to 7-day-old secondary cultures.” left out
(§2) Cultured cells were incubated at 37°C for 1 h with fresh serum-free medium in the absence or presence of test substances. […] The amount of Bax and Bcl-2 cDNA in each sample was calculated by the comparative threshold cycle (Ct) method and expressed as 2^exp(−ΔΔCt) using glyceraldehyde-3-phosphate dehydrogenase as an internal control.

Bcl-2 = Bcl-2 mRNA level, quantitative RT-PCR; details: ODN 0.1 nM
Protocol: as §1, with “For measurement of cell survival, caspase-3 activity and mitochondrial activity, cells were plated in hydrophilic surface 24-well plates at a density of 8×10^4 cells/ml. The cells were incubated at 37°C in a humid atmosphere (5% CO2). After 5 days (DIV5), more than 99% of the cells were labeled with antibodies against glial fibrillary acidic protein [65]. All experiments were performed on 5- to 7-day-old secondary cultures.” left out
as §2

[2] = 10 min pre-incubation, 1 h 300 µM H2O2

With “ODN: octadecaneuropeptide, endozepine derived from diazepam-binding inhibitor; endogenous ligand of central-type benzodiazepine and metabotropic receptors; synthesized by Fmoc procedure (QATVGDVNTDRPGLLDLK; Octadecaneuropeptide; UniProt P11030 34-51, looked up)” the “effect on H2O2-induced depletion of GSH (mBCl fluorescence)” value ([1]; ODN 0.1 nM pretreatment, 1 h 300 µM H2O2) was “prevented the depletion of mBCl fluorescence induced by H2O2”, the “effect on intracellular GSH content (mBCl fluorescence), peptide alone” value ([1]; graded ODN 1 fM to 0.1 nM, 1 h) was “dose-related increase in mBCl fluorescence intensity” and the “effect on H2O2-induced increase of Bax mRNA levels” value (Bax; [2]) was “totally prevented the increase of Bax mRNA levels induced by H2O2”. For the same substance, the “effect on Bax mRNA levels, peptide alone” value (Bax; 1 h, RT-PCR) was “had no effect on Bax mRNA levels”, the “effect on H2O2-induced inhibition of Bcl-2 expression” value (Bcl-2; [2]) was “suppressed the inhibitory effect of H2O2 on Bcl-2 expression” and the “effect on Bcl-2 mRNA levels, peptide alone” value (Bcl-2; 1 h, RT-PCR, 6 wells from three cultures) was “induced an increase of Bcl-2 mRNA levels by itself”.
